Measured values taken from PubChem BioAssay (NCI).
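48-hour exposure; five concentrations; linearly interpolated endpoints. Here, GI50 denotes the concentration required for 50% inhibition of growth. TGI denotes the concentration required for complete inhibition of growth.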

What was measured:
Experiment in all cases: NCI-60 cell line screen, 48 h
SK-MEL-5 melanoma = test system: SK-MEL-5 melanoma
MOLT-4 leukemia = test system: MOLT-4 leukemia
HCT-15 colon = test system: HCT-15 colon
SN12C renal = test system: SN12C renal
NCI-H23 lung = test system: NCI-H23 lung
U251 CNS = test system: U251 CNS
SF-539 CNS = test system: SF-539 CNS
PC-3 prostate = test system: PC-3 prostate
CAKI-1 renal = test system: CAKI-1 renal
NCI-H226 lung = test system: NCI-H226 lung

Structure (SMILES)	TGI (SK-MEL-5 melanoma) [µM]	TGI (MOLT-4 leukemia) [µM]	TGI (HCT-15 colon) [µM]	TGI (SN12C renal) [µM]	TGI (NCI-H23 lung) [µM]	TGI (U251 CNS) [µM]	TGI (SF-539 CNS) [µM]	GI50 (PC-3 prostate) [nM]	TGI (PC-3 prostate) [µM]	GI50 (CAKI-1 renal) [nM]	TGI (CAKI-1 renal) [µM]	GI50 (SK-MEL-5 melanoma) [nM]	GI50 (NCI-H226 lung) [µM]	TGI (NCI-H226 lung) [µM]	GI50 (SN12C renal) [nM]	GI50 (NCI-H23 lung) [nM]	GI50 (MOLT-4 leukemia) [nM]	GI50 (HCT-15 colon) [nM]	GI50 (U251 CNS) [nM]	GI50 (SF-539 CNS) [nM]
O=C(NCCOCCO)c1ccc(O)cc1	> 100	> 100	> 100	> 100	> 100	> 100	> 100													
OC(c1cc2c(Cl)cc(Cl)cc2c2cc(C(F)(F)F)ccc12)C1CCCCN1 (stereo unspecified)	3.12			3.38	3.43			1710	3.26	1680	3.46	1730	1.73	3.56	1800	1660				
CCCCCCCCCCCC(=O)[O][Sn]([CH2]CCC)([CH2]CCC)[CH2]CCC	0.0786	0.732	0.168	0.221	0.145	0.125	0.141	49	0.162	96.5	0.216	30.2			76.7	31.2	43.6	45.6	44.2	60.9
C[C@]12CC[C@H](O)CC1CCC[C@@H]2O (stereo partly specified)	> 100	> 100	> 100	> 100	> 100	> 100	> 100				> 100									
COC(=O)/C=C/c1cc(OC)c2c(c1)[C@@H](C(=O)OC)[C@H](c1ccc(OC)c(OC)c1)O2	> 100	> 100	> 100	> 100	> 100	> 100	> 100	2110	> 100			901	38.4	> 100	6440	3570	1730	486	1380	1220
CN1CCN(C(=S)N(C(=O)c2ccc(Cl)cc2)C2CCCCC2)CC1	> 100	> 100	> 100	> 100	> 100	> 100								> 100						
Cn1c(=O)c2nc3sc4ccccc4c(=N)n3c2n(C)c1=O	> 100	> 100		> 100	> 100		> 100				> 100			> 100						
Cc1ccc(Sc2cc([N+](=O)[O-])cc(Sc3ccc(C)cc3)c2Sc2ccc(C)cc2)cc1	> 100	> 100	> 100	> 100		> 100	> 100				> 100			> 100						
Cn1c(=O)ccc2cc(C(=O)c3ccccc3)ccc21	55.7	> 100	> 100	> 100	> 100	> 100	> 100				> 100			99.7						
O=C1CCC(=O)C12CCc1ccccc12			> 100	> 100	> 100	> 100					> 100									
C=C1[C@@H]2CCC(C)(C)[C@H]1CCC(=O)[C@@H]2C(=O)OC	> 100	> 100	> 100	> 100	> 100	> 100	> 100							> 100						
COc1cc(/C=C/C(=O)c2ccc(SC)cc2)cc(OC)c1OC	24.5	8.65	14.4	8.98	23.5	12	27.2	14200	95.3	16100	32.2	12000			3170	10000	3140	3600	3270	11700
OC1OC2COC(c3ccccc3)OC2C(O)C1O (stereo unspecified)	> 100	> 100	> 100	> 100	> 100	> 100	> 100				> 100			> 100						
Nc1c(-c2ccc(-c3c(N)[n+]([O-])c4ccccc4[n+]3[O-])cc2)[n+]([O-])c2ccccc2[n+]1[O-]	23.6	> 100	15.4	34.4	21.1	39.6	18.2				20.3			45						
Clc1ccc2c(NCCCNCc3ccc4c(c3)OCO4)ccnc2c1	3.13	10.2	7.85	21.6	23.8	7.11	3.41	4080	17.2			1740	17.8	40.9	8260	8590	2680	2420	2680	1850
COc1ccc(S(=O)(=O)Nc2c(/C=C\c3cc(OC)c(OC)c(OC)c3)ccc(OC)c2O)cc1OC	0.435	> 100	> 100	> 100	> 100	> 100	0.457	244	> 100	1010	> 100	98.5			484	318	440	308	365	85.6
COc1ccc(/C=C\c2cc(OC)c(OC(C)=O)c(OC)c2)cc1	20.5	38.6	97	30.8	63.4	23.1	14.9				> 100			> 100						
COc1cccc(/C=N/[N-]C(N)=O)c1[O-].[Cu+2].c1ccncc1	37.2	69.3	> 100	46.7	45.8	32.2	54.2				31.1			44.6						
O=C1OC(=O)C2C1C1(c3ccccc3)OC2(c2ccccc2)c2c(Br)c(Br)c(Br)c(Br)c21 (stereo unspecified)	> 100	> 100	> 100	> 100	> 100	> 100	> 100				> 100			> 100						
CCN(CC)[C@@H]1c2cc3c(cc2C(c2cc(OC)c(O)c(OC)c2)C2C(=O)CO[C@@H]21)OCO3 (stereo partly specified)	> 100	> 100	> 100	> 100	> 100	> 100	> 100				> 100			> 100						
Nc1c(C(=O)Nc2cccc3ccccc23)sc2nc3c(cc12)CCCCCC3	6.85	> 50	> 50	> 50	> 50	> 50	> 50	1790	> 50			929	5.5	> 50	3400	1970	2380	772	1870	1240
CCC1(O)CC(c2ccccc2)N(C)C(c2ccccc2)C1 (stereo unspecified)	> 100	> 100	> 100	> 100	> 100	> 100	> 100				> 100			> 100						

Structure (SMILES)	TGI (SK-MEL-5 melanoma) [µM]	TGI (MOLT-4 leukemia) [µM]	TGI (HCT-15 colon) [µM]	TGI (SN12C renal) [µM]	TGI (NCI-H23 lung) [µM]	TGI (U251 CNS) [µM]	TGI (SF-539 CNS) [µM]	GI50 (PC-3 prostate) [nM]	TGI (PC-3 prostate) [µM]	GI50 (CAKI-1 renal) [nM]	TGI (CAKI-1 renal) [µM]	GI50 (SK-MEL-5 melanoma) [nM]	GI50 (NCI-H226 lung) [µM]	TGI (NCI-H226 lung) [µM]	GI50 (SN12C renal) [nM]	GI50 (NCI-H23 lung) [nM]	GI50 (MOLT-4 leukemia) [nM]	GI50 (HCT-15 colon) [nM]	GI50 (U251 CNS) [nM]	GI50 (SF-539 CNS) [nM]
O=C1OC(/C=C/c2ccccc2)C(=O)C1=O (stereo unspecified)		> 100	> 100		> 100	> 100	> 100							> 100						
c1ccc2c(c1)-c1nc3ccccc3cc1C2N1CCOCC1 (stereo unspecified)	> 100	> 100	> 100	> 100	> 100	> 100			> 100		> 100			> 100						
CN=C(NC#N)NCc1ccccc1	> 100	> 100	> 100	> 100	> 100	> 100	> 100				> 100			> 100						
CCCCCCCCCCCCCCCc1nc(SCC(=O)O)n[nH]1	> 100	> 100	> 100	> 100	> 100	81.2	> 100				> 100									
CC(=O)c1ccc(-c2ccc(C(C)=O)s2)s1	> 100	> 100	> 100	> 100	> 100	> 100	> 100				> 100			> 100						
O=C(c1ccccc1)C(c1ccccc1)C1(O)C(=O)Nc2ccc(Br)cc21 (stereo unspecified)		> 100	> 100	> 100	> 100	> 100	> 100				> 100			> 100						
CC(NC(=O)C1(N)CCCC1)C(=O)O (stereo unspecified)	> 100	> 100	> 100	> 100	> 100	> 100			> 100		> 100			> 100						
Nc1c2c(c(O)c3c1=C(CO)C=N3)=NCCS2=O (stereo unspecified)	2.36	4.22	10.6	3.57	5.64	3.26	3.06	2190	6.13			1130	1.79	4.17	1660	615	1240	2990	1780	1650
COc1cc(C2C(Cl)C(=O)N2NC(=O)c2ccccc2O)cc(OC)c1OC (stereo unspecified)	> 10	> 10			9.95	> 10	> 10		> 10					> 10						
CCn1cc(C(=O)O)c(=O)c2cc(F)c(N3CCNCC3)nc21	> 100	> 100	> 100	> 100	> 100	> 100	> 100							> 100						
Fc1cccc(C2SCc3nc4ccccc4n32)c1 (stereo unspecified)	29.4	> 100		> 100	> 100		> 100				> 100			> 100						
O=C(O)c1cccc(F)c1C(=O)c1ccc2ccccc2c1			> 100	> 100		> 100	> 100		> 100		> 100			> 100						
COC(=O)C1=CCS(=O)(=O)C1	> 100	> 100	> 100	> 100	> 100		> 100				> 100			> 100						
Cc1cc2c(C=O)[nH]nc2c(C#N)c1C	> 100	> 100	> 100	78.6	> 100	> 100	61.4													
O=C1C2Cc3ccccc3CN2C(=O)N1CCN1CCOCC1 (stereo unspecified)	> 100	> 100	> 100	> 100	> 100	> 100	> 100				> 100			> 100						
CC12CCC(C)(c3cc(O)c(O)cc31)c1cc(O)c(O)cc12	36.4	42.5	29.3	48.6	75.5						23.6									
O=CN/C=C\c1cc(O)ccc1O	> 50.9	70.6	23.7	28.9	> 56.1	> 81	> 49.6				26.4			> 100						
O=c1c2ccc(Br)cc2nc(-c2ccccc2)n1NC1OC(CO)C(O)C(O)C1O (stereo unspecified)	> 100	> 100	> 100	> 100	> 100	> 100	> 100				> 100			> 100						
OC1/C(=C/c2ccccc2)CNC/C1=C\c1ccccc1 (stereo unspecified)	> 100	> 100	> 100	> 100		> 100	> 100				> 100									
COc1cc(C2C(C(=O)Nc3ccccc3C)=C(C)NC(C)=C2C(=O)Nc2ccccc2C)ccc1O	> 100	> 100		> 100	> 100	> 100	> 100				> 100			> 100						
OCC1C2C=CC(O2)[C@H]1CO (stereo partly specified)	> 100	> 100	> 100	> 100		> 100	> 100				> 100			> 100						
O=c1cc(/C=C/c2ccccc2)c2ccc(O/C(=C\c3ccccc3)c3nc4ccccc4c(=O)o3)cc2o1	41	74.3	> 100	> 100	28.7	> 100	63.2				> 100									
